Results as given in paper PMC5078040 (Oncotarget, 2016).
pEC50: −log10 of the molar value.

Assays:
[1] = biological target: T1, RSK2(Kin.Dom.1-N-terminal) (Homo sapiens, UniProt P51812); assay: KinomeScan; assay type: binding; details: 1uM
T1 construct: RSK2(Kin.Dom.1-N-terminal); purchased DiscoveRx KINOMEscan

[2] = biological target: T2, IKK-epsilon (Homo sapiens, UniProt Q14164); assay: KinomeScan; assay type: binding; details: 1uM
T2 construct: purchased DiscoveRx KINOMEscan

[3] = biological target: PI3Kδ (Homo sapiens, UniProt O00329); assay: Kinase kinetic assay (ATP competition, ADP-Glo); assay type: biochemical; details: varied ATP concentration
Description: Kinetic analyses of PI3KCD were performed using a luminometric kinase assay varying the concentration of ATP using the ADP-Glo reagents (Promega). […] After 60 min incubation at RT, varied concentrations of ATP, 0.1mM substrate PIP2:PS were added and incubated for 60 min at 37°C. The overall rate of reaction was determined as the slope of the decreasing phase of the reaction. Each data point was collected in duplicate and kinetic parameters were obtained using Prism 5.0 (GraphPad Software, San Diego, CA).

[4] = biological target: T3, BMPR2 (Homo sapiens, UniProt Q13873); assay: KinomeScan; assay type: binding; details: 1uM
T3 construct: purchased DiscoveRx KINOMEscan

[5] = biological target: T4, YANK3 (Homo sapiens, UniProt Q86UX6); assay: KinomeScan; assay type: binding; details: 1uM
T4 construct: purchased DiscoveRx KINOMEscan

[6] = biological target: T5, MAP3K1 (Homo sapiens, UniProt Q13233); assay: KinomeScan; assay type: binding; details: 1uM
T5 construct: purchased DiscoveRx KINOMEscan

[7] = biological target: T6, MYO3A (Homo sapiens, UniProt Q8NEV4); assay: KinomeScan; assay type: binding; details: 1uM
T6 construct: purchased DiscoveRx KINOMEscan

[8] = biological target: T7, CLK1 (Homo sapiens, UniProt P49759); assay: KinomeScan; assay type: binding; details: 1uM
T7 construct: purchased DiscoveRx KINOMEscan

[9] = biological target: T8, RSK3(Kin.Dom.2-C-terminal) (Homo sapiens, UniProt Q15349); assay: KinomeScan; assay type: binding; details: 1uM
T8 construct: RSK3(Kin.Dom.2-C-terminal); purchased DiscoveRx KINOMEscan

[10] = biological target: T9, TIE2 (Homo sapiens, UniProt Q02763); assay: KinomeScan; assay type: binding; details: 1uM
T9 construct: purchased DiscoveRx KINOMEscan

[11] = biological target: T10, JAK1(JH2domain-pseudokinase) (Homo sapiens, UniProt P23458); assay: KinomeScan; assay type: binding; details: 1uM
T10 construct: JAK1(JH2domain-pseudokinase); purchased DiscoveRx KINOMEscan
T10 sequence (P23458 583-855 limits assumed): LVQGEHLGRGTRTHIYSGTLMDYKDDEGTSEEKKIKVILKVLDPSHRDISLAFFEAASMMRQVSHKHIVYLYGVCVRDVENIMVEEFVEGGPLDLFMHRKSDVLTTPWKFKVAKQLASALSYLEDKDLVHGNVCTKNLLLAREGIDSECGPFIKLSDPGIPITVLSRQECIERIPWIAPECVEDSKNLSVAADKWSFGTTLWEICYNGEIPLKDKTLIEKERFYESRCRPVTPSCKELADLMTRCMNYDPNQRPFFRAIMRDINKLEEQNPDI

[12] = biological target: T11, CDK2 (Homo sapiens, UniProt P24941); assay: KinomeScan; assay type: binding; details: 1uM
T11 construct: purchased DiscoveRx KINOMEscan

[13] = biological target: T12, AURKC (Homo sapiens, UniProt Q9UQB9); assay: KinomeScan; assay type: binding; details: 1uM
T12 construct: purchased DiscoveRx KINOMEscan

[14] = biological target: T13, VRK2 (Homo sapiens, UniProt Q86Y07); assay: KinomeScan; assay type: binding; details: 1uM
T13 construct: purchased DiscoveRx KINOMEscan
T13 sequence (Q86Y07 whole entry): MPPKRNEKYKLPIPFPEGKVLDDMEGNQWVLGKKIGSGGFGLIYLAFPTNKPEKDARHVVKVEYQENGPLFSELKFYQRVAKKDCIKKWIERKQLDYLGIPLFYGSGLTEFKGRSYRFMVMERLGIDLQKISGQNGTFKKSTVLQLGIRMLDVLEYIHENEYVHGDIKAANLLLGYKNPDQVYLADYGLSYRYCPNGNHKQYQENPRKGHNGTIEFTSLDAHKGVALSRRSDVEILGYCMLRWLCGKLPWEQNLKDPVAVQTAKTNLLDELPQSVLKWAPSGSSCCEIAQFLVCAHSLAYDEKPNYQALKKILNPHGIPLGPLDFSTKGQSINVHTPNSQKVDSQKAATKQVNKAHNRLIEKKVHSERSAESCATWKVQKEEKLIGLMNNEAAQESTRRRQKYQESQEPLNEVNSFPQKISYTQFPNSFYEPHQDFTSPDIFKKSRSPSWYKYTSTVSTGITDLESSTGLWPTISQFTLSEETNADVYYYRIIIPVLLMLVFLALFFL

[15] = biological target: T14, GCN2(Kin.Dom.2,S808G) (Homo sapiens, UniProt Q9P2K8, S808G); assay: KinomeScan; assay type: binding; details: 1uM
T14 construct: GCN2(Kin.Dom.2,S808G); purchased DiscoveRx KINOMEscan

[16] = biological target: T15, MKNK1 (Homo sapiens, UniProt Q9BUB5); assay: KinomeScan; assay type: binding; details: 1uM
T15 construct: purchased DiscoveRx KINOMEscan

[17] = biological target: T16, ZAP70 (Homo sapiens, UniProt P43403); assay: KinomeScan; assay type: binding; details: 1uM
T16 construct: purchased DiscoveRx KINOMEscan

[18] = biological target: T17, LZK (Homo sapiens, UniProt O43283); assay: KinomeScan; assay type: binding; details: 1uM
T17 construct: purchased DiscoveRx KINOMEscan
T17 sequence (O43283 whole entry): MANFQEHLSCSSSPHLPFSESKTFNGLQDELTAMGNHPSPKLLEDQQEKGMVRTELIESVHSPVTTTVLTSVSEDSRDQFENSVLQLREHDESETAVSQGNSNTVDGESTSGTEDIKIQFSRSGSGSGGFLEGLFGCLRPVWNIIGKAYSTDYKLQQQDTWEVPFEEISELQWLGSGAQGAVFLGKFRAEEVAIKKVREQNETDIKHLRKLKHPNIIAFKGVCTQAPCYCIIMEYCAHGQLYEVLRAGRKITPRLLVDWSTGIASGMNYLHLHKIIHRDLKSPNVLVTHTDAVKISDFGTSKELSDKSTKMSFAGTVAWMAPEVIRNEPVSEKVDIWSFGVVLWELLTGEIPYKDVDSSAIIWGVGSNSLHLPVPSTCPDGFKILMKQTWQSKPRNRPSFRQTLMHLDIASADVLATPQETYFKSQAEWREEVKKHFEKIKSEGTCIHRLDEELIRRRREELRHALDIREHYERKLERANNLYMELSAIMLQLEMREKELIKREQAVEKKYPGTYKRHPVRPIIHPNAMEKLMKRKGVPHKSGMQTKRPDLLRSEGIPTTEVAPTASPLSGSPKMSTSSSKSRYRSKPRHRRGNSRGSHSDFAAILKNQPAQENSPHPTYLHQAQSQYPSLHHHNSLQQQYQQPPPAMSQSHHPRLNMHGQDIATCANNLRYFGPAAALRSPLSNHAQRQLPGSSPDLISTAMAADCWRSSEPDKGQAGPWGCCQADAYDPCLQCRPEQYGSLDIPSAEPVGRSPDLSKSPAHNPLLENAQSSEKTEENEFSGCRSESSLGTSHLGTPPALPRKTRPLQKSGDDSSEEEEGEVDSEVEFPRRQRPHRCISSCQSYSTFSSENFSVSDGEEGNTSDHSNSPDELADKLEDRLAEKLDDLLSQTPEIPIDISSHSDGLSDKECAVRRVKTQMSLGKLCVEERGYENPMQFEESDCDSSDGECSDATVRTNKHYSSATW

[19] = biological target: T18, AMPK-alpha1 (Homo sapiens, UniProt Q13131); assay: KinomeScan; assay type: binding; details: 1uM
T18 construct: purchased DiscoveRx KINOMEscan
T18 sequence (Q13131 whole entry): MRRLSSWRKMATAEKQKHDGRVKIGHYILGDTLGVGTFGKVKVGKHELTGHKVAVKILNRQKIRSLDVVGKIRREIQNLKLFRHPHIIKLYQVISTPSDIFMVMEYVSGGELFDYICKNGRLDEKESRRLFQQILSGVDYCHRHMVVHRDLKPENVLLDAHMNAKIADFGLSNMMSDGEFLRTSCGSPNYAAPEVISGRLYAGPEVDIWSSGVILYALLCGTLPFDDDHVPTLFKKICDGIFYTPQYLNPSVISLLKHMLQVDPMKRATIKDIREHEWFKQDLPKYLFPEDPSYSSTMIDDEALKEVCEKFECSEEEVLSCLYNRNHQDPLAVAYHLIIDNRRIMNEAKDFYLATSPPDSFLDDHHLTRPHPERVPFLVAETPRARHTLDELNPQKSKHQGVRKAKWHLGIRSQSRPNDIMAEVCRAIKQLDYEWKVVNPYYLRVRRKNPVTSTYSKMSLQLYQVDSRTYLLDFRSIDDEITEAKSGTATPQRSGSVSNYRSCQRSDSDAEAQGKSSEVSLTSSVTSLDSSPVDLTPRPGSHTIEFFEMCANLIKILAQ

[20] = biological target: T19, EPHA4 (Homo sapiens, UniProt P54764); assay: KinomeScan; assay type: binding; details: 1uM
T19 construct: purchased DiscoveRx KINOMEscan

[21] = biological target: T20, MEK5 (Homo sapiens, UniProt Q13163); assay: KinomeScan; assay type: binding; details: 1uM
T20 construct: purchased DiscoveRx KINOMEscan

[22] = biological target: T21, HIPK2 (Homo sapiens, UniProt Q9H2X6); assay: KinomeScan; assay type: binding; details: 1uM
T21 construct: purchased DiscoveRx KINOMEscan

[23] = biological target: T22, CDK7 (Homo sapiens, UniProt P50613); assay: KinomeScan; assay type: binding; details: 1uM
T22 construct: purchased DiscoveRx KINOMEscan

[24] = biological target: T23, RSK3(Kin.Dom.1-N-terminal) (Homo sapiens, UniProt Q15349); assay: KinomeScan; assay type: binding; details: 1uM
T23 construct: RSK3(Kin.Dom.1-N-terminal); purchased DiscoveRx KINOMEscan

[25] = biological target: T24, BRAF(V600E) (Homo sapiens, UniProt P15056, V600E); assay: KinomeScan; assay type: binding; details: 1uM
T24 construct: purchased DiscoveRx KINOMEscan

[26] = biological target: T25, FLT4 (Homo sapiens, UniProt P35916); assay: KinomeScan; assay type: binding; details: 1uM
T25 construct: purchased DiscoveRx KINOMEscan
T25 sequence (P35916 25-1363): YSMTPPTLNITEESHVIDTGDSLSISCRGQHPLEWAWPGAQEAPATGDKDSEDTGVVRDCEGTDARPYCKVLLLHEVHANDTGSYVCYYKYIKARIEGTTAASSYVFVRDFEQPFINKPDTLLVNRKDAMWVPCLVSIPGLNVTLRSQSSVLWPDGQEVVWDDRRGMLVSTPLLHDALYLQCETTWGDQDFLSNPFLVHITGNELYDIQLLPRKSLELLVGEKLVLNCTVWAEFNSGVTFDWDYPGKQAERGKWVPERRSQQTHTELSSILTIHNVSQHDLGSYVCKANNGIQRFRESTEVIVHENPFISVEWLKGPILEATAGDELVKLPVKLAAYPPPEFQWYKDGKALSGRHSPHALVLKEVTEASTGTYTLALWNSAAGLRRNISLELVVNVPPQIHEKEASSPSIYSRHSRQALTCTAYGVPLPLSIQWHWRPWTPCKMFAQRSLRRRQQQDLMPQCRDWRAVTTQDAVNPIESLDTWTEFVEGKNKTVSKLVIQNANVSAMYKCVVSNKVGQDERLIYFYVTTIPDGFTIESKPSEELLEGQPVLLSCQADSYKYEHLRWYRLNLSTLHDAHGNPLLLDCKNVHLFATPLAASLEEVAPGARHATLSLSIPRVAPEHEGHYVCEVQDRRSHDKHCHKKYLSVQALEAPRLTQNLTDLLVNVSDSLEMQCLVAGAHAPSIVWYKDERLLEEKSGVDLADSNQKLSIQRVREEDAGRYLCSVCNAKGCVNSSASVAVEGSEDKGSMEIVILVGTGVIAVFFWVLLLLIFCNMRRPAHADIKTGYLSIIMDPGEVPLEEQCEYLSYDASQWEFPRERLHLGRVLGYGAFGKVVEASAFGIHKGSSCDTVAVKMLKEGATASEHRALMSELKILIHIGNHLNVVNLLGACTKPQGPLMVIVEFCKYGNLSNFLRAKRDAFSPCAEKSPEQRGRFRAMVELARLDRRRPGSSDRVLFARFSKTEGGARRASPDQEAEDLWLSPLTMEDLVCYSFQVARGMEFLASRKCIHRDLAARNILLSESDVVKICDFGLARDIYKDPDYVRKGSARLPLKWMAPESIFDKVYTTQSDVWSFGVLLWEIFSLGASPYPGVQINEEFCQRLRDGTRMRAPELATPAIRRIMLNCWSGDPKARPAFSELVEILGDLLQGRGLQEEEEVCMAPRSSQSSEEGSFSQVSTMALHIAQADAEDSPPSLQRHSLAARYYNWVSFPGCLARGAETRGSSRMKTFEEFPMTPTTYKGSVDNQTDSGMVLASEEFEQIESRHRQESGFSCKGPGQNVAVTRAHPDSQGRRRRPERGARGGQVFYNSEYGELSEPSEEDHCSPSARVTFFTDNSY

[27] = biological target: T26, NEK9 (Homo sapiens, UniProt Q8TD19); assay: KinomeScan; assay type: binding; details: 1uM
T26 construct: purchased DiscoveRx KINOMEscan

[28] = biological target: T27, MARK3 (Homo sapiens, UniProt P27448); assay: KinomeScan; assay type: binding; details: 1uM
T27 construct: purchased DiscoveRx KINOMEscan
T27 sequence (P27448 whole entry): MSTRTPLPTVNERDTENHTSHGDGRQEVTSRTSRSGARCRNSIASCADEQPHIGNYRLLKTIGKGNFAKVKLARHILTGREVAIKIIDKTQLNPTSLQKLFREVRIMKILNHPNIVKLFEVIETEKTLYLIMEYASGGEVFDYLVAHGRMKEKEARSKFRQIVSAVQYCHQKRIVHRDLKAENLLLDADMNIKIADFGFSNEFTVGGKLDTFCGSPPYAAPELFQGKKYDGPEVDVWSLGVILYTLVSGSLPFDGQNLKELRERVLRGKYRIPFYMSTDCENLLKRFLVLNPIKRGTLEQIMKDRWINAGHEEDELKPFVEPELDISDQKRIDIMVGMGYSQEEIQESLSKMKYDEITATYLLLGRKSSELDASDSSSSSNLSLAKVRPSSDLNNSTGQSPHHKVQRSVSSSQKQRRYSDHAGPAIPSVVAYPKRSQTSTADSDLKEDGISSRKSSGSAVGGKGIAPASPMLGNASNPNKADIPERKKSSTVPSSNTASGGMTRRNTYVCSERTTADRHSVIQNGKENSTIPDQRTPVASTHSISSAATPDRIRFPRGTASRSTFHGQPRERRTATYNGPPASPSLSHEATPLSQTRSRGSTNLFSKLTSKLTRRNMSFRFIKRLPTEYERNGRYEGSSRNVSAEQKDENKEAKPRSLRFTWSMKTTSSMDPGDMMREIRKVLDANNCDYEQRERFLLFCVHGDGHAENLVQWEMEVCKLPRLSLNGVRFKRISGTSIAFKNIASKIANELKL

[29] = biological target: T28, CDC2L5 (Homo sapiens, UniProt Q14004); assay: KinomeScan; assay type: binding; details: 1uM
T28 construct: purchased DiscoveRx KINOMEscan

[30] = biological target: T29, ERBB2 (Homo sapiens, UniProt P04626); assay: KinomeScan; assay type: binding; details: 1uM
T29 construct: purchased DiscoveRx KINOMEscan

[31] = biological target: T30, FLT3-autoinhibited (Homo sapiens, UniProt P36888); assay: KinomeScan; assay type: binding; details: 1uM
T30 construct: purchased DiscoveRx KINOMEscan

[32] = biological target: T31, TRKB (Homo sapiens, UniProt Q16620); assay: KinomeScan; assay type: binding; details: 1uM
T31 construct: purchased DiscoveRx KINOMEscan

[33] = biological target: T32, KIT(V559D) (Homo sapiens, UniProt P10721, V559D); assay: KinomeScan; assay type: binding; details: 1uM
T32 construct: purchased DiscoveRx KINOMEscan

[34] = biological target: PI3Kγ (Mus musculus, UniProt Q9JHG7); assay: cell-based
[35] = biological target: T33, KIT(V559D,T670I) (Homo sapiens, UniProt P10721, T670I/V559D); assay: KinomeScan; assay type: binding; details: 1uM
T33 construct: purchased DiscoveRx KINOMEscan

[36] = biological target: T34, HIPK3 (Homo sapiens, UniProt Q9H422); assay: KinomeScan; assay type: binding; details: 1uM
T34 construct: purchased DiscoveRx KINOMEscan

[37] = biological target: T35, PDPK1 (Homo sapiens, UniProt O15530); assay: KinomeScan; assay type: binding; details: 1uM
T35 construct: purchased DiscoveRx KINOMEscan
T35 sequence (O15530 whole entry): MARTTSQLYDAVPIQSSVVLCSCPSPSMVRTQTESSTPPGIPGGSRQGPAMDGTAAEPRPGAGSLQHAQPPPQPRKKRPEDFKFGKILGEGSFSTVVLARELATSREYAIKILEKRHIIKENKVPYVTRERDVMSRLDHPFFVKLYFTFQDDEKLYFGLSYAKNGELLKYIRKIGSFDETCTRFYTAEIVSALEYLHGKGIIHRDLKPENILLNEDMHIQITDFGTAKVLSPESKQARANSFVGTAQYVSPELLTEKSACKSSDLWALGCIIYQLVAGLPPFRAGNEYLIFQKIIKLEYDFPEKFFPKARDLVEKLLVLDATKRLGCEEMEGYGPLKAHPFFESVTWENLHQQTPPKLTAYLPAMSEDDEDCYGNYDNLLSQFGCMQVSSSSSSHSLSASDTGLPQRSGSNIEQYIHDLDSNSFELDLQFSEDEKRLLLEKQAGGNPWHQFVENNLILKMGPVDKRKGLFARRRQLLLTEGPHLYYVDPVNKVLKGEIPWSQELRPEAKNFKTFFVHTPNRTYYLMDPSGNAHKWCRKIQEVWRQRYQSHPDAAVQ

## Cc1nc(NC(=O)[C@@H](N)C(C)C)sc1-c1cnc(Cl)c(NS(=O)(=O)c2ccccc2)c1 [PI3KD-IN-015]
[1]
  KinomeScan RSK2(Kin.Dom.1-N-terminal): 100
[2]
  KinomeScan IKK-epsilon: 100
[3]
  binding kinetics / mode of inhibition: ATP competitive inhibitor
[4]
  KinomeScan BMPR2: 96
[5]
  KinomeScan YANK3: 97
[6]
  KinomeScan MAP3K1: 96
[7]
  KinomeScan MYO3A: 94
[8]
  KinomeScan CLK1: 100
[9]
  KinomeScan RSK3(Kin.Dom.2-C-terminal): 99
[10]
  KinomeScan TIE2: 89
[11]
  KinomeScan JAK1(JH2domain-pseudokinase): 100
[12]
  KinomeScan CDK2: 88
[13]
  KinomeScan AURKC: 77
[14]
  KinomeScan VRK2: 91
[15]
  KinomeScan GCN2(Kin.Dom.2,S808G): 100
[16]
  KinomeScan MKNK1: 100
[17]
  KinomeScan ZAP70: 96
[18]
  KinomeScan LZK: 92
[19]
  KinomeScan AMPK-alpha1: 100
[20]
  KinomeScan EPHA4: 100
[21]
  KinomeScan MEK5: 94
[22]
  KinomeScan HIPK2: 100
[23]
  KinomeScan CDK7: 100
[24]
  KinomeScan RSK3(Kin.Dom.1-N-terminal): 100
[25]
  KinomeScan BRAF(V600E): 100
[26]
  KinomeScan FLT4: 93
[27]
  KinomeScan NEK9: 100
[28]
  KinomeScan MARK3: 100
[29]
  KinomeScan CDC2L5: 92
[30]
  KinomeScan ERBB2: 100
[31]
  KinomeScan FLT3-autoinhibited: 100
[32]
  KinomeScan TRKB: 100
[33]
  KinomeScan KIT(V559D): 87
[34]
  pEC50: < 5.52
[35]
  KinomeScan KIT(V559D,T670I): 90
[36]
  KinomeScan HIPK3: 100
[37]
  KinomeScan PDPK1: 100
